Results reported in PubChem BioAssay (NCI).
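Five concentrations, 48 hours, 96-well plates. TGI: total growth inhibition.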

Columns and labels:
Test in all cases: NCI tumour cell line growth inhibition, 48 h
[1] = test system: NCI-H226 lung
[2] = test system: HOP-92 NSCLC
[3] = test system: MDA-N
[4] = test system: NCI-H522 lung
[5] = test system: PC-3 prostate
[6] = test system: K-562 leukemia
[7] = test system: UACC-62 melanoma
[8] = test system: EKVX NSCLC
[9] = test system: OVCAR-3 ovarian
[10] = test system: HCT-116 colon
[11] = test system: SK-OV-3 ovarian
[12] = test system: KM12 colon
[13] = test system: RPMI-8226 leukemia
[14] = test system: SR leukemia
[15] = test system: MDA-MB-435
[16] = test system: NCI-H23 lung
[17] = test system: SN12C renal
[18] = test system: OVCAR-8 ovarian
[19] = test system: NCI-H460 lung

Measured: TGI

NC(=O)C(=CNC(=S)Nc1ccc(Cl)c(Cl)c1)C(N)=O
72.3 µM: [4]
> 100 µM: all other assays above

O=C(OC[C@H]1C[C@H]2C(=O)CCC[C@H]2O1)c1ccccc1
> 100 µM: all assays above

c1ccc(-c2nnc(SCc3c[nH]c4ccccc34)n2-c2ccccc2)cc1
66.7 µM: [7]
79.3 µM: [2]
93.9 µM: [5]
> 100 µM: all other assays above

CC(C)COC(=O)OC(=O)c1ccc(N(C)Cc2cnc3nc(N)nc(N)c3n2)cc1
> 100 µM: all assays above

O=C(NNCC(F)(F)F)c1ccncc1
> 100 µM: all assays above

O=[N+]1ON=C(c2ccccc2)C1=C1C(c2c(-c3ccccc3)no[n+]2[O-])=NON1[O-]
10.6 µM: [6]
10.5 µM: [3]
51.2 µM: [7]
11.3 µM: [5]
62.5 µM: [1]
70.1 µM: [2]
16.2 µM: [10]
20.7 µM: [16]
30.6 µM: [9]
68.7 µM: [19]
6.56 µM: [15]
> 100 µM: all other assays above

COC1=CC(=O)c2c(cc(COP(=O)(OCC3OC(n4cc(F)c(=O)[nH]c4=O)CC3O)N(C)CCCCCl)n2C)C1=O (stereo not given)
5 µM: [15]
1.84 µM: [17]
> 92.7 µM: [14]
28.5 µM: [10]
19.1 µM: [4]
1.79 µM: [7]
8.86 µM: [3]
22.7 µM: [5]
26 µM: [8]
> 73.3 µM: [18]
14 µM: [19]
> 79.8 µM: [11]
97.9 µM: [12]
14.5 µM: [9]
> 95.9 µM: [6]
12.3 µM: [2]
47.1 µM: [1]
> 19.8 µM: [13]
17.7 µM: [16]

Cn1cc(S(=O)(=O)NC(=O)Nc2ccc(Cl)cc2)c2ccccc21
69.3 µM: [4]
79.9 µM: [7]
> 100 µM: all other assays above

CCN1C(=O)/C(=C2\SC(c3ccccc3)(c3ccccc3)c3ccccc32)SC1=S
42.9 µM: [14]
82.4 µM: [2]
> 100 µM: all other assays above

C[N+](C)(C)/N=C/c1ccc(O)c(O)c1
> 100 µM: all assays above

COC1(OC)N=C(N)C2(C#N)C3(C(=O)N(C(C)C)N=C3C)C12C#N (stereo not given)
> 100 µM: all assays above

Cc1c(-c2ccccc2)c(C#N)c2nnn(C3CCCCC3)c(=O)n12
80.8 µM: [2]
> 100 µM: all other assays above

COC(=O)C(Cc1ccccc1)NP(=O)(O)OCC1OC(n2cc(I)c(=O)[nH]c2=O)CC1O (stereo not given)
> 100 µM: all assays above

CCCCCCCNC(P(=O)(O)O)P(=O)(O)O
> 100 µM: all assays above

COc1cccc(C2ON=C(c3ccccc3)N2C23CC4CC(CC(C4)C2)C3)c1 (stereo not given)
> 10 µM: all assays above
